# Source: patent US5849753A, “Pyridyl imidazole derivatives and processes for the preparation thereof” (Korea Research Institute of Chemical Technology, priority 1994, dated 1998)
# Tests used:
# angiotensin II receptor = assay: Angiotensin II Receptor Binding Assay ([3H] angiotensin II binding inhibition); conditions: [3H] angiotensin II ligand; 60 minutes, 25° C.; test concentration not given
# Method: In accordance with the procedure disclosed in Chiu, A. T. et al., Eur. J. Pharm., 157, 13(1981), a ligand marked with a radioisotope was reacted with an angiotensin II receptor and the reactant was filtered with a glass fiber to remove unreacted ligand. After washing the filter, the amount of the remaining isotope was measured to determine the binding activity of the ligand, as described below in detail.
# Sprague-Dawley rats and Wistar rats of 250 to 350 g(from The Korea Research Institute of Chemical Technology) were tested and the test procedures were carried out at 4° C., unless otherwise specified. Adrenal gland was separated from the Sprague-Dawley rats(liver, in the case of Wistar rats) into cortex and medulla. The separated adrenal cortex and medulla were washed with a sucrose buffer solution (0.2M sucrose, 1 mM EDTA, 10 mM Tris, pH 7.2) and homogenized in the same buffer solution by using a Teflon pestle and a Brinkmann homogenizer. The homogenates were centrifuged at 3,000 Xg for 10 minutes to remove precipitates and further centrifuged at 12,000 Xg for 13 minutes. The final supernatants were centrifuged at 102,000 Xg for 1 hour to obtain precipitates, which were washed with a Tris buffer solution(50 mM Tris, 5 mM MgCl2, pH 7.2) and re-centrifuged at 102,000 Xg for 1 hour. The resulting precipitates were immediately processed at the following step or stored at -70° C.
# The precipitates were suspended in a Tris buffer solution. The amount of protein was determined by using a Bio-Rad DC protein analyzing kit and the protein concentration was adjusted to the amounts of: 0.2 to 0.3 mg/ml(Sprague-Dawley rat: adrenal cortex), 1.5 to 2.0 mg/ml(Sprague-Dawleyrat: adrenal medulla), and 1.5 to 2.0 mg/ml(Wistar rat: liver). To the suspension, bovine serum albumin(BSA) was added to a concentration of 0.25 wt % and the resultant was immediately processed at the following step or stored at -70° C.
# (ii) Measurement of angiotensin II receptor binding capacity 50 μl(based on ligand) of [^3 H] angiotensin II(NEN, NET-446) and 10 μl of each of the test compounds with various concentrations were added to the buffer solution(50 mM Irris(pH 7.2), 5 mM MgCl2, 0.25% BSA) to adjust the final volume to be 0.5 ml. 100 μl of the receptor suspension was added thereto and the resulting solution was reacted for 60 minutes while stirring in a water bath at 25° C. 3 ml of cold buffer solution for analysis was added to cease the reaction. The isotope which was bound to the receptor was isolated from the resultant by using Brandel Cell Harvester System with Whatman glass fiber GF/C. After washing the filter, the radioactivity of the filter was determined by using a liquid scintillation counter. Binding inhibition(%) of the test compound was calculated as follows:
# Binding Inhibition(%)=[{(T--B)-(S--B)}/(T--B)]×100
# wherein T is cpm of the reaction product untreated with the test compound, S is cpm of the reaction product treated with the test compound, and B is cpm of blank test.
# renal hypertensive rat = assay: Blood pressure lowering effect in renal hypertension (renal hypertensive rats, intravenous or oral); format: in vivo, male Sprague-Dawley rats; conditions: 3 mg, read-out: Maxium Blood Pressure Lowering Effect(%)
# Text: To induce renal hypertension, left renal artery of 4 week-old male Sprague-Dawley rats(from The Korea Research Institute of Chemical Technology) was ligated. The rats were anesthetized with ether and the surgical region on the left abdomen of the rat was shaved, disinfected, and then incised about 1 cm vertically. The renal artery near abdominal aorta was isolated carefully from surrounding tissues and veins, and then ligated completely with a suture(4/0 sterile surgical silk). The muscular strata and skin of the surgical area were sutured with a suture(4/0 sterile surgical silk). The surgical region was disinfected to prevent infection and thereafter, 200 to 250 mg/Kg/day of cephazolin sodium was injected intramuscularly for 2 days. 6 to 8 days after the ligation, rats showing systolic pressure of more than 180 mmHg were selected for renal hypertension test. The blood pressure was determined by a tail-cuff method from the tail under unanesthetized condition(Gerold, M. et al., Arzneimittrel-Forsch, 18, 1285(1968)).
# Each of the compounds to be tested was administered intravenously or orally into the renal hypertensive rat. The blood pressure of the rats was determined by direct method(Chiu, A. T. et al., J. Pharmacol. Exp. Ther. 250, 867(1989)) using a catheter. The rats were anesthetized with ketamine hydrochloride(125 mg/kg, i.p.) and a catheter was filled with saline and inserted into a carotid artery and carotid vein. The surgical area was sutured with a metal clip. The rats were relaxed at least 3 hours and the catheter in the carotid artery was adapted to an isotec pressure transducer to determine their blood pressure and heart rate with a physiograph(Linearcorder WR3310). After the blood pressure was stabilized, the test compound was administered intravenously or orally. For intravenous administration, the administered volume and washing volume were 1.0 ml/Kg and 0.2 ml, respectively. The blood pressure and heart rate were measured in regular intervals up to 24 hours after the administration of the test compound and compared with those measured after the administration of the control compound Losartan.
# The test compound was dissolved in 0.05N KOH for intravenous administration and suspended in Tween 80 for oral administration.
Binding Inhibition(%) (angiotensin II receptor),SMILES,change in vivo at 3 mg (renal hypertensive rat) [%]
89.2,"CCCCc1nc2cc(-c3ccccc3N)c(C(OC)OC)nc2n1Cc1ccc(-c2ccccc2-c2nn[nH]n2)cc1 [Example 26, 2-butyl-5-dimethoxymethyl-6-(2-aminophenyl-1-yl)-3-[2'-(1H-tetrazol-5-yl)-biphenyl-4-ylmethyl]-3H-imidazo[4,5-b]pyridine]",–
44.5,"CCc1nc2c(C)cc(C(OC)OC)nc2n1Cc1ccc(-c2ccccc2-c2nnn[nH]2)cc1 [Example 12, 2-ethyl-5-dimethoxymethyl-7-methyl-3-[2'-(1H-tetrazol-5-yl)-biphenyl-4-ylmethyl]-3H-imidazo[4,5-b]pyridine]",–
87.8,"CCCCc1nc2cc(Cc3ccccc3)c(C(OC)OC)nc2n1Cc1ccc(-c2ccccc2-c2nnn[nH]2)cc1 [Example 27, 2-butyl-5-dimethoxymethyl-6-benzyl-3-[2'-(1H-tetrazol-5-yl)-biphenyl-4-ylmethyl]-3H-imidazo[4,5-b]pyridine]",–
78.1,"CCCCc1nc2cc(Br)c(C(OC)OC)nc2n1Cc1ccc(-c2ccccc2-c2nnn[nH]2)cc1 [Example 7, 2-butyl-5-dimethoxymethyl-6-bromo-3-[2'-(1H-tetrazol-5-yl)-biphenyl-4-ylmethyl]-3H-imidazo[4,5-b]pyridine]",–
97.0,"CCCCc1nc2cc(-c3cc[n+]([O-])cc3)c(C(OC)OC)nc2n1Cc1ccc(-c2ccccc2-c2nn[nH]n2)cc1 [Example 25, 2-butyl-5-dimethoxymethyl-6-(1-oxy-pyridin-4-yl)-3-[2'-(1H-tetrazol-5-yl)-biphenyl-4-ylmethyl)-3H-imidazo[4,5-b]pyridine]",-29
49.0,"CCCCc1nc2cc(-c3ccc(OC)cc3)c(C(OC)OC)nc2n1Cc1ccc(-c2ccccc2-c2nn[nH]n2)cc1 [Example 6, 2-butyl-5-dimethoxymethyl-6-(4-methoxyphenyl-1-yl)-3-[2'-(1H-tetrazol-5-yl)-biphenyl-4-ylmethyl]-3H-imidazo[4,5-b]pyridine]",-25
60.9,"CCCCc1nc2cc(-c3ccccc3)c(C3OCCCO3)nc2n1Cc1ccc(-c2ccccc2-c2nn[nH]n2)cc1 [Example 4, 2-butyl-5-(1,3-dioxan-2-yl)-6-phenyl-3-[2'-(1-tetrazol-5-yl)-biphenyl-4-ylmethyl]-3H-imidazo[4,5-b]pyridine]",-33
70.6,"CCCCc1nc2cc(-c3ccccc3)c(C3OCCO3)nc2n1Cc1ccc(-c2ccccc2-c2nnn[nH]2)cc1 [Example 3, 2-butyl-5-(1,3-dioxolan-2-yl)-6-phenyl-3-[2'-(1H-tetrazol-5-yl)-biphenyl-4-ylmethyl]-3H-imidazo[4,5-b]pyridine]",-27
68.5,"CCCCc1nc2cc(-c3ccc(C)cc3)c(C(OC)OC)nc2n1Cc1ccc(-c2ccccc2-c2nn[nH]n2)cc1 [Example 16, 2-butyl-5-dimethoxymethyl-6-(4-methylphenyl-1-yl)-3-[2'-(1H-tetrazol-5-yl)-biphenyl-4-ylmethyl]-3H-imidazo[4,5-b]pyridine]",–
54.1,"CCCCc1nc2cc(-c3ccccc3)c(C3SCCS3)nc2n1Cc1ccc(-c2ccccc2-c2nnn[nH]2)cc1 [Example 5, 2-butyl-5-(1,3-dithiolan-2-yl)-6-phenyl-3-[2'-(1H-tetrazol-5-yl)-biphenyl-4-ylmethyl]-3H-imidazo[4,5-b]pyridine]",–
92.9,"CCCCc1nc2cc(-c3ccncc3)c(C(OC)OC)nc2n1Cc1ccc(-c2ccccc2-c2nnn[nH]2)cc1 [Example 23, 2-butyl-5-dimethoxymethyl-6-(pyridin-4-yl)-3-[2'-(1H-tetrazol-5-yl)-biphenyl-4-ylmethyl]-3H-imidazo[4,5-b]pyridine]",-33
82.0,"CCCCc1nc2cc(-c3ccc(COCc4ccccc4)cc3)c(C(OC)OC)nc2n1Cc1ccc(-c2ccccc2-c2nn[nH]n2)cc1 [Example 17, 2-butyl-5-dimethoxymethyl-6-[4-(benzyloxymethyl)-phenyl-1-yl]-3-[2'-(1H-tetrazol-5-yl)-biphenyl-4-ylmethyl]-3H-imidazo[4,5-b]pyridine]",–
45.2,"CCCCc1nc2cc(-c3ccc(F)cc3)c(C(OC)OC)nc2n1Cc1ccc(-c2ccccc2-c2nn[nH]n2)cc1 [Example 9, 2-butyl-5-dimethoxymethyl-6-(4-fluorophenyl-1-yl)-3-[2'-(1H-tetrazol-5-yl)-biphenyl-4-ylmethyl]-3H-imidazo[4,5-b]pyridine]",–
82.0,"CCCCc1nc2cc(CCc3ccccc3)c(C(OC)OC)nc2n1Cc1ccc(-c2ccccc2-c2nn[nH]n2)cc1 [Example 15, 2-butyl-5-dimethoxymethyl-6-(2-phenylethyl-1-yl)-3-[2'-(1H-tetrazol-5-yl)-biphenyl-4-ylmethyl]-3H-imidazo[4,5-b]pyridine]",-36
70.9,"CCCCc1nc2cc(-c3ccccc3[N+](=O)[O-])c(C(OC)OC)nc2n1Cc1ccc(-c2ccccc2-c2nn[nH]n2)cc1 [Example 19, 2-butyl-5-dimethoxymethyl-6-(2-nitrophenyl-1-yl)-3-[2'-(1H-tetrazol-5-yl)-biphenyl-4-ylmethyl]-3H-imidazo[4,5-b]pyridine]",-29
72.0,"CCCCc1nc2cc(-c3cccs3)c(C(OC)OC)nc2n1Cc1ccc(-c2ccccc2-c2nnn[nH]2)cc1 [Example 14, 2-butyl-5-dimethoxymethyl-6-(thiophen-2-yl)-3-[2'-(1H-tetrazol-5-yl)-biphenyl-4-ylmethyl]-3H-imidazo[4,5-b]pyridine]",–
83.6,"CCCCc1nc2ccc(C(OC)OC)nc2n1Cc1ccc(-c2ccccc2-c2nnn[nH]2)cc1 [Example 10, 2-butyl-5-dimethoxymethyl-3-[2'-(1H-tetrazol-5-yl)-biphenyl-4-ylmethyl]-3H-imidazo[4,5-b]pyridine]",–
95.0,"CCCCc1nc2cc(CCC(=O)OCC)c(C(OC)OC)nc2n1Cc1ccc(-c2ccccc2-c2nn[nH]n2)cc1 [Example 13, 2-butyl-5-dimethoxymethyl-6-[2-(ethoxycarbonyl)-ethyl-1-yl]-3-[2'-(1H-tetrazol-5-yl)-biphenyl-4-ylmethyl]-3H-imidazo[4,5-b]pyridine]",-32
–,"CCCCc1nc2cc(-c3ccccc3)c(C(OCC)OCC)nc2n1Cc1ccc(-c2ccccc2-c2nnn[nH]2)cc1 [Example 2, 2-butyl-5-diethoxymethyl-6-phenyl-3-[2'-(1H-tetrazol-5-yl)-biphenyl-4-ylmethyl]-3H-imidazo[4,5-b]pyridine]",-45
52.5,"CCCCc1nc2c(C)cc(C(OC)OC)nc2n1Cc1ccc(-c2ccccc2-c2nnn[nH]2)cc1 [Example 11, 2-butyl-5-dimethoxymethyl-7-methyl-3-[2'-(1H-tetrazol-5-yl)-biphenyl-4-ylmethyl]-3H-imidazo[4,5-b]pyridine]",–
